Assay results as given in patent US20090186929A1, “Method and agent for inducing apoptosis/cell death in leukemia cells” (U.S. DEPARTMENT OF VETERANS AFFAIRS, priority 2003, published 2009).

Experiments:
CLL cells [1] = test: CLL cell apoptosis (TUNEL assay); type: cell-based, human; conditions: CLL cells in vitro
Description: Culture of cells with IL-4 or IFN-γ (but not TNF-α, IL-2, IL-6, IL-8, G-CSF, nerve growth factor, or IFN-α) increased NO production. By quantitative RT-PCR, IL-4 increased NOS2 mRNA (FIG. 8). Also, 5 of 5 patients' CLL cells had increases in NOS2 protein (immunoblot) after in vitro treatment with IL-4. Apoptosis (TUNEL assay) was induced by NMMA treatment of the cells, and incubating cells with IL-4 or IFN-y reduced apoptosis. […] Since IL-4 and IFN-gamma induce NOS2 and modulate CD38 expression in CLL cells in vitro, we sought to determine if CLL patients had elevated levels of these cytokines and if the levels related to CD38 expression by the leukemia cells (Reference 87).

CLL cells [2] = test: Cytotoxicity of NOS inhibitors for CLL cells in vitro (MTS assay); conditions: cytotoxicity for CLL cells in vitro
From the text: We worked to optimize the culture of CLL cells (Reference 86). […] These were all tested with and without albumin, fetal bovine serum, human serum, glutamine, insulin, transferrin, selenium, and mercaptoethanol.
Toxicity could be detected by disappearance of cells from the culture (reduction in overall cell number), uptake of trypan blue, propidium iodide uptake (flow cytometry), MTS (4,5-dimethylthiazol-2-yl)-5-(3-carboxymethoxyphenyl)-2-(4-sulfophenyl)-2H-tetrazolium, inner salt) assay (cellular respiration), and several parameters of apoptosis [annexin V assay, DNA content […], and TUNEL assay].

[3] = normals, trials for septic shock and migraine; cited from earlier work
[4] = target: T1, purified recombinant rat NOS1 oxygenase domain (Rattus norvegicus, UniProt P29476); test: NOS inhibitor binding (Kd) to NOS1
T1 construct: purified recombinant rat NOS1 oxygenase domain

[5] = target: T2, purified recombinant human NOS2 oxygenase domain (Homo sapiens, UniProt P35228); test: NOS inhibitor binding (Kd) to NOS2
T2 construct: purified recombinant human NOS2 oxygenase domain
Description: […] The cLogP value for each NOS inhibitor was determined using the CLOGP computer program (BioByte, Claremont, Calif.). […] Linear regression was used to examine the correlation between the IC50, Kd and cLogP values and ED50 values.
We determined the dissociation constant for NOS inhibitor binding (Kd) to purified recombinant and NOS2.

CLL cells [6] = test: Cytotoxicity of NOS inhibitors for CLL cells in vitro (PI exclusion assay); type: cell-based; conditions: Homo sapiens, CLL cell, read-out: Mean ED50 ± S.E.M. (CLL cell cytotoxicity)
From the text: Toxicity could be detected by disappearance of cells from the culture (reduction in overall cell number), uptake of trypan blue, propidium iodide uptake (flow cytometry), MTS (4,5-dimethylthiazol-2-yl)-5-(3-carboxymethoxyphenyl)-2-(4-sulfophenyl)-2H-tetrazolium, inner salt) assay (cellular respiration), and several parameters of apoptosis [annexin V assay, DNA content (<in), and TUNEL assay].

T2 sequence (P35228 1-504 limits assumed): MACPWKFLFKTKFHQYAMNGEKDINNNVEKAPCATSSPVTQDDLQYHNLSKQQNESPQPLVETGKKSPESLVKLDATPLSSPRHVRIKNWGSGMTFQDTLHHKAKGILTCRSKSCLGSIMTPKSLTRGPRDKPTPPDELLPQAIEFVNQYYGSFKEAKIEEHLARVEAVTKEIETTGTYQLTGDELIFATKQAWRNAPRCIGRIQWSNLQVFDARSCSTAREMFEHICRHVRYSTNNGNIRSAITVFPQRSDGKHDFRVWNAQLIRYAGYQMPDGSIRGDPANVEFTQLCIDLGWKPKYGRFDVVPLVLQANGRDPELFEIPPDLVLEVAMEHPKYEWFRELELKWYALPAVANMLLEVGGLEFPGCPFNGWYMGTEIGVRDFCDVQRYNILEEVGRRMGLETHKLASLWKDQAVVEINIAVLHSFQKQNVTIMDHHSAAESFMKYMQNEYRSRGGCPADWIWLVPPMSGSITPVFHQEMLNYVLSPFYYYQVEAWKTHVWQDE
T1 sequence (P29476 1-720 limits assumed): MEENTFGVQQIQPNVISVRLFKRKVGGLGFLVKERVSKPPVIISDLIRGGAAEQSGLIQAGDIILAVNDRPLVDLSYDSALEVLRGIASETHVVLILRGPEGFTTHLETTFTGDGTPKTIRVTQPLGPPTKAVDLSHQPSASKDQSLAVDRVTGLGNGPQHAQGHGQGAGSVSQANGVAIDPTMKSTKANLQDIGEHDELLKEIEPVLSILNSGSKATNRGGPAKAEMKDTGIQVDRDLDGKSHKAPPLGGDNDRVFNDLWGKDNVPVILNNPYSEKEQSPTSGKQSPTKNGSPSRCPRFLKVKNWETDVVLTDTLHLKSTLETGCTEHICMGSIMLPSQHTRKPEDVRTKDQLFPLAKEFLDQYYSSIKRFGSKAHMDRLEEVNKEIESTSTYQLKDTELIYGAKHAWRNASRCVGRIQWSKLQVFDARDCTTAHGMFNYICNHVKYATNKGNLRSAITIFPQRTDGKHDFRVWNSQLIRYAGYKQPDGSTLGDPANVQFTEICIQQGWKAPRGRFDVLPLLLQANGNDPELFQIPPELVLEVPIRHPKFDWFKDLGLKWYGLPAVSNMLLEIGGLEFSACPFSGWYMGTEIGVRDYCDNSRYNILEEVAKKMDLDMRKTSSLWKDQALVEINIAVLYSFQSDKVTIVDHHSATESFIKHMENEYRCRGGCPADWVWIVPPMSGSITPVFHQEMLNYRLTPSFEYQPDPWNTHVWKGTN

Kd [4]	Kd [5]	SMILES	Apoptosis (TUNEL assay) (CLL cells [1])	ED50 ranking, FIG. 10 (CLL cells [2])	Effects on cardiovascular, liver, or hematopoietic function [3]	EC50 (CLL cells [6])
		CC(=O)O.CNC(=N)NCCC[C@H](N)C(=O)O [L-NMMA, N^G-Monomethyl-L-arginine monoacetate]	induced	very high ED50	no major effects	
0.1 µM	0.5 µM	C=CCC(=N)NCCC[C@H](N)C(=O)O [Vinyl-L-NIO, N^5-(1-Imino-3-butenyl)-L-ornithine]				1190 ± 456 µM
